Assay results taken from patent US4939137A, “Ring-fused thienopyrimidinedione derivatives” (Ortho Pharmaceutical Corporation, priority 1989, dated 1990).

Legend:
5HT2 receptor = biological target: T1, 5HT2 receptor (Rattus norvegicus, UniProt P14842); assay: Brain Serotonin 5HT2 Radioreceptor Assay (3H-ketanserin); format: binding; conditions: for IC50: rat frontal cortex membranes, 15 minutes, 37° C., read-out: RECEPTOR BINDING 5HT-2 (IC50); for inhibition at 1 µM: 0.25 h, @ 10^-6, rat frontal cortex membranes, read-out: RECEPTOR BINDING 5HT-2, % @ 10^-6
T1 construct: Membrane fragments were prepared from the frontal cortex dissected from brains obtained from female rats; from tissue; host or cells: frontal cortex, female rats
Description: (§1) Membrane fragments were prepared from the frontal cortex dissected from brains obtained from female rats (~150 g). The 5HT2 sites were labeled with ^3 H-ketanserin. Membrane fragments, ^3 H-ketanserin and an unlabeled test compound were incubated for 15 minutes at 37° C. Compound bound to the receptor site was separated from the remaining unbound compound by vacuum filtration.
The ability of a nonlabeled compound to compete with ^3 H-ketanserin for binding sites was a measure of the compound's affinity for the 5HT2 receptor. Specific binding was determined by the difference between total counts bound and counts bound in the presence of 10^-6 M methysergide.
Data are presented as the IC50, the concentration of nonlabeled compound required to displace 50% of the ^3 H-ketanserin specifically bound to 5HT2 binding sites.

[1] = biological target: alpha-1 adrenergic receptor; assay: Brain Alpha-1 Radioreceptor Assay (3H-prazosin); conditions: guinea pig brain membranes, 30 minutes, 30° C., read-out: RECEPTOR BINDING ALPHA-1 (IC50)
Description: Membrane fragments were prepared from the brains of mature female guinea pigs after removal of the corpus striata. The alpha-1 adrenergic receptor sites were labeled with ^3 H-prazosin. Membrane fragments, ^3 H-prazosin and an unlabeled test compound were incubated for 30 minutes at 30° C. Compound bound to the receptor site was separated from the remaining unbound radioligand by vacuum filtration. Specific binding was determined by the difference between total counts bound and counts bound in the presence of 10-^5 M phentolamine.

5HT1A receptor = biological target: T2, 5HT1A receptor (Rattus norvegicus, UniProt P19327); assay: Brain Serotonin 5HT1A Radioreceptor Assay (3H-80H-DPAT); format: binding; conditions: for IC50: rat frontal cortex membranes, 10 minutes, 37° C., read-out: RECEPTOR BINDING 5HT-1A (IC50); for inhibition at 1 µM: @ 10^-6, rat frontal cortex membranes, read-out: RECEPTOR BINDING 5HT-1A, % @ 10^-6
T2 construct: Membrane fragments were prepared from the frontal cortex dissected from brains obtained from female rats; from tissue; host or cells: frontal cortex, female rats
T2 sequence (P19327 1-422): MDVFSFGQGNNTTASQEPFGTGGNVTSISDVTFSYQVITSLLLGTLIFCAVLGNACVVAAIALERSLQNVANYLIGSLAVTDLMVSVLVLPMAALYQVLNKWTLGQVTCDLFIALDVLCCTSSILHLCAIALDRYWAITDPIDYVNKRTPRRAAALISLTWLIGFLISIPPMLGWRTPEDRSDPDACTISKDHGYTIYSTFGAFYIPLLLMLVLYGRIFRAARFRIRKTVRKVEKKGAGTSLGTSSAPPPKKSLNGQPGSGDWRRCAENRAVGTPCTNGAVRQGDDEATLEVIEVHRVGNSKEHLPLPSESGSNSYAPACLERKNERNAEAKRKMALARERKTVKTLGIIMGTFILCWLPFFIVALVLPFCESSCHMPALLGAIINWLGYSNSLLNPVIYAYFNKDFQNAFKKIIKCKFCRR
Description: as §1, with “The 5HT1A” for “The 5HT2”, “^3 H-80H-dipropylaminotetralin (^3 H-80H-DPAT).” for “^3 H-ketanserin.”, “^3 H-80H-DPAT” for “^3 H-ketanserin”, “for 10” for “for 15”, “C. The tubes were then placed in an ice bath for an additional 10 minutes.” for “C.”
The ability of a nonlabeled compound to compete with ^3 H-80H-DPAT for binding sites was a measure of the compound's affinity for the 5HT1A receptor. Specific binding was determined by the difference between total counts bound and counts bound in the presence of 10^-5 M serotonin.
Data are presented at the IC50, the concentration of nonlabeled compound required to displace 50% of the ^3 H-80H-DPAT specifically bound to 5HT1A binding sites.

T1 sequence (P14842 whole entry, the tested form may be a part): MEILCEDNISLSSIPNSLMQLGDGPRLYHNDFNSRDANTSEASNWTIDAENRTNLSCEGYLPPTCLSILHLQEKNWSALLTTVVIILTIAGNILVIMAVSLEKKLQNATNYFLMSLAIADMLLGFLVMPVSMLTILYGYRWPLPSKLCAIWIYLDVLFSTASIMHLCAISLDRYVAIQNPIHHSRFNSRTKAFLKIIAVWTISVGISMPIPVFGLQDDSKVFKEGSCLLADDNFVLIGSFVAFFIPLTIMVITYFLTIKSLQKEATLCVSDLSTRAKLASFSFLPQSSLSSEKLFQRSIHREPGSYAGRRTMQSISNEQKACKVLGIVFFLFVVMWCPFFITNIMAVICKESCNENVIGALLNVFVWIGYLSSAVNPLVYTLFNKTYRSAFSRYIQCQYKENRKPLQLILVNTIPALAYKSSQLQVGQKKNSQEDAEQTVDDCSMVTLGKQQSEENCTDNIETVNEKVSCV

| SMILES | IC50 (5HT2 receptor) [nM] | IC50 [1] [nM] | IC50 (5HT1A receptor) [nM] | inhibition at 1 µM (5HT2 receptor) [%] | inhibition at 1 µM (5HT1A receptor) [%] | inhibition at 10 µM (5HT1A receptor; @ 10^-5, rat frontal cortex membranes, read-out: RECEPTOR BINDING 5HT-1A, % @ 10^-5) [%] |
| --- | --- | --- | --- | --- | --- | --- |
| O=C1CCn2c(=O)n(CCN3CCN(c4cccc(C(F)(F)F)c4)CC3)c(=O)c3csc1c32 [Example 6, 4-[2-[4-(3-Trifluoromethylphenyl)piperazin-1-yl]ethyl]-3,4,5,7,8,9-hexahydrothieno[4,3,2-de]-pyrido[1,2-c]pyrimidine-3,5,9-trione] | 700 | 1000 | 28 | – | – | – |
| O=C1CCn2c(=O)n(CCN3CCN(c4cccc(Cl)c4)CC3)c(=O)c3csc1c32 [Example 7, 4-[2-[4-(3-Chlorophenyl)piperazin-1-yl]ethyl]-3,4,5,7,8,9-hexahydrothieno[4,3,2-de]pyrido[1,2-c]pyrimidine-3,5,9-trione] | 350 | 180 | 5 | – | – | – |
| COc1ccccc1N1CCN(CCCn2c(=O)c3csc4c3n(c2=O)CCC4=O)CC1 [Example 10, 3,4,5,7,8,9-Hexahydro-4-[3-[4-(2-methoxyphenyl)piperazin-1-yl]propyl]thieno[4,3,2-de]pyrido[1,2-c]pyrimidine-3,5,9-trione] | 300 | 21 | 5 | – | – | – |
| COc1ccccc1N1CCN(CCCCn2c(=O)c3csc4c3n(c2=O)CCC4=O)CC1 [Example 11, 3,4,5,7,8,9-Hexahydro-4-[4-[4-(2-methoxyphenyl)-piperazin-1-yl]butyl]thieno[4,3,2-de]pyrido[1,2-c]pyrimidine-3,5,9-trione] | – | 0.5 | 0.9 | 33 | – | – |
| COc1ccccc1N1CCN(CCCCCn2c(=O)c3csc4c3n(c2=O)CCC4=O)CC1 [Example 12, 3,4,5,7,8,9-Hexahydro-4-[5-[4-(2-methoxyphenyl)piperazin-1-yl]pentyl]thieno[4,3,2-de]pyrido[1,2-c]pyrimidine-3,5,9-trione] | 1500 | – | 45 | – | – | – |
| COc1ccccc1N1CCN(CCn2c(=O)c3csc4c3n(c2=O)CCCCC4=O)CC1 [Example 16, 4,7,8,9,10,11-Hexahydro-4-[2-[4-(2-methoxyphenyl)piperazin-1-yl]ethyl]thieno[4,3,2-de]pyrimido[3,4-a]azocine-3,5,11-trione] | 2000 | 35 | 160 | – | – | – |
| O=C1CCn2c(=O)n(CCN3CC=C(c4ccccc4)CC3)c(=O)c3csc1c32 [Example 17, 3,4,5,7,8,9-Hexahydro-4-[2-(4-phenyl-1,2,3,6-tetrahydropyridin-1-yl)ethyl]thieno[4,3,2-de]pyrido[1,2-c]pyrimidine-3,5,9-trione] | – | 7.6 | – | 21 | 1.8 | – |
| O=C1CCn2c(=O)n(CCCCN3CCN(c4cccc(C(F)(F)F)c4)CC3)c(=O)c3csc1c32 [Example 18, 4-[4-[4-(3-Trifluoromethylphenyl)piperazin-1-yl]butyl]-3,4,5,7,8,9-hexahydrothieno[4,3,2-de]-pyrido[1,2-c]pyrimidine-3,5,9-trione] | – | 4500 | – | 47 | – | – |
| O=C1CCn2c(=O)n(CCN3CCC(C(=O)c4ccc(F)cc4)CC3)c(=O)c3csc1c32 [Example 19, 4-[2-[4-(4-Fluorobenzoyl)piperidin-1-yl]ethyl]-3,4,5,7,8,9-hexahydrothieno[4,3,2-de]pyrido[1,2-c]pyrimidine-3,5,9-trione] | 1 | 1000 | – | – | 35 | – |
| O=C1CCn2c(=O)n(CCN3CCC(=C(c4ccc(F)cc4)c4ccc(F)cc4)CC3)c(=O)c3csc1c32 [Example 20, 4-[2-[4-[Bis(4-fluorophenyl)methylene]piperidin-1-yl]ethyl]-3,4,5,7,8,9-hexahydrothieno[4,3,2-de]pyrimidine-3,5,9-trione] | 180 | 22000 | – | – | 47 | – |
| COc1ccccc1N1CCN(CCn2c(=O)c3csc4c3n(c2=O)CCCC4O)CC1 (stereo not shown) [Example 22, 10-Hydroxy-4,7,8,9-tetrahydro-4-[2-[4-(2-methoxyphenyl)piperazin-1-yl]ethyl]thieno[4,3,2-de]pyrimido[3,4-a]azepine-3,5-dione] | 270 | 0.4 | 62 | – | – | – |
| CON=C1CCCn2c(=O)n(CCN3CCN(c4ccccc4OC)CC3)c(=O)c3csc1c32 [Example 27, 4,7,8,9-Tetrahydro-10-methoxyimino-4-[2-[4-(2-methoxyphenyl)piperazin-1-yl]ethyl]thieno[4,3,2-de]pyrimido[3,4-a]azepine-3,5-dione] | – | 0.14 | 70 | 11 | – | – |
| CON=C1CCn2c(=O)n(CCN3CCN(c4ccccc4OC)CC3)c(=O)c3c(C)sc1c32 [Example 28, 3,4,5,7,8,9-Hexahydro-9-methoxyimino-4-[2-[4-(2-methoxyphenyl)piperazin-1-yl]ethyl]-2-methyl-thieno[4,3,2-de]pyrido[1,2-c]pyrimidine-3,5-dione] | 150 | < 1 | 20 | – | – | – |
| CON=C1CCn2c(=O)n(CCCN3CCN(c4ccccc4OC)CC3)c(=O)c3csc1c32 [Example 29, 3,4,5,7,8,9-Hexahydro-9-methoxyimino-4-[3-[4-(2-methoxyphenyl)piperazin-1-yl]propyl]thieno-[4,3,2-de]pyrido[1,2-c]pyrimidine-3,5-dione] | – | 26 | – | 34.3 | 5.2 | – |
| COc1ccccc1N1CCN(CCn2c(=O)c3csc4c3n(c2=O)CCC4NC(C)=O)CC1 (stereo not shown) [Example 39, 9-Acetylamino-3,4,5,7,8,9-hexahydro-4-[2-[4-(2-methoxyphenyl)piperazin-1-yl]ethyl]thieno[4,3,2-de]pyrido[1,2-c]pyrimidine-3,5-dione] | 750 | 0.35 | 580 | – | – | – |
| COc1ccccc1N1CCN(CCn2c(=O)c3csc4c3n(c2=O)CCC4NC(=O)c2ccccc2)CC1 (stereo not shown) [Example 40, 9-Benzoylamino-3,4,5,7,8,9-hexahydro-4-[2-[4-(2-methoxyphenyl)piperazin-1-yl]ethyl]thieno[4,3,2-de]pyrido[1,2-c]pyrimidine-3,5-dione] | 2500 | 3 | – | – | – | 45 |
| CON=C1CCn2c(=O)n(CCN3CCN(c4cccc(Cl)c4)CC3)c(=O)c3csc1c32 [Example 41, 4-[2-[4-(3-Chlorophenyl)piperazin-1-yl]ethyl]-3,4,5,7,8,9-hexahydro-9-methoxyiminothieno[4,3,2-de]pyrido[1,2-c]pyrimidine-3,5-dione] | 1000 | 40000 | 1000 | – | – | – |
| O=C1CCn2c(=O)n(CCCCN3CCC(C(=O)c4ccc(F)cc4)CC3)c(=O)c3csc1c32 [Example 42, 4-[4-[4-(4-Fluorobenzoyl)piperidin-1-yl]butyl]-3,4,5,7,8,9-hexahydrothieno[4,3,2-de]pyrido[1,2-c]pyrimidine-3,5,9-trione] | 630 | 540 | 400 | – | – | – |
| O=C1CCn2c(=O)n(CCCCCN3CCN(c4cccc(C(F)(F)F)c4)CC3)c(=O)c3csc1c32 [Example 43] | 430 | – | 52 | – | – | – |
| CON=C1CCn2c(=O)n(CCCCCN3CCN(c4cccc(C(F)(F)F)c4)CC3)c(=O)c3csc1c32 [Example 44, 4-[5-[4-(3-Trifluoromethylphenyl)piperazin-1-yl]-pentyl]-3,4,5,7,8,9-hexahydro-9-methoxyiminothieno[4,3,2-de]pyrido[1,2-c]pyrimidine-3,5-dione] | 130 | – | 200 | – | – | – |
| O=C1CCn2c(=O)n(CCCCCN3CCC(=C(c4ccc(F)cc4)c4ccc(F)cc4)CC3)c(=O)c3csc1c32 [Example 45, 4-[5-[4-[Bis(4-fluorophenyl)methylene]piperadin-1-yl]pentyl]-3,4,5,7,8,9-hexahydrothieno[4,3,2-de]pyrimidine-3,5,9-trione Monooxalate] | 55 | – | 240 | – | – | – |
